Results published in US5051438A, “Alkoxy-substituted dihydrobenzopyran-2-carboxylic acids and derivatives thereof, compositions and use” (G. D. Searle & Co., priority 1990, dated 1991).
pIC50: −log10 of the molar value.

Tests used:
Human neutrophils [1] = assay: Modified Boyden Chamber Chemotaxis, fMLP-induced; format: cell-based; settings: 1.0×10^-8 M fMLP, 90 minutes, 37° C; for Relative Potency, Chemotaxis fMLP: potency relative to compound of Example 1(b), defined as 1.0
Source text: (§1) Neutrophils were purified from venous blood of normal human donors using standard techniques of dextran sedimentation, centrifugation on Ficoll-paque® (Pharmacia) or Histopaque® sterile solution (Sigma) and hypotonic lysis of erythrocytes (Boyum, A., Isolation of Leukocytes From Human Blood: Further Observations. Scand. J. Lab. Clin. Invest., 21 (Suppl. 97): 31, 1968). The purity of isolated neutrophils was >95%. […] A final cell suspension of 3.4×10^6 neutrophils/ml of HEPES-buffered Hanks' balanced salt solution (HBSS, pH 7.3) was added to the upper well (0.8 ml) of a modified Boyden chamber (blind well). […] Following a 90 minute incubation at 37° C. in 5% CO2 -95% air, cells from the lower well were lysed and nuclei counted in a Model S-Plus-IV Coulter Counter. Percent inhibition was calculated from cell counts corrected for random migration by subtracting the mean of the HBSS control. […] Pat. No. 4,889,871.

Human neutrophils [2] = assay: Modified Boyden Chamber Chemotaxis, LTB4-induced; format: cell-based; settings: 3×10^-8 M LTB4, 90 minutes, 37° C; for Relative Potency, Chemotaxis LTB4: potency relative to compound of Example 1(b), defined as 1.0
Source text: as §1

LTB4 Receptor = target: T1, LTB4 Receptor (Homo sapiens, UniProt Q15722); assay: LTB4 Receptor Binding Assay; settings: potency relative to compound of Example 1(b), defined as 1.0; 0.6×10^-9 M (^3H) LTB4, human neutrophils, 0° C, 45 minutes
T1 construct: Neutrophils were purified from venous blood of normal human donors; endogenous in cells; host or cells: neutrophils from venous blood of normal human donors (>95% pure)
T1 sequence (Q15722 whole entry): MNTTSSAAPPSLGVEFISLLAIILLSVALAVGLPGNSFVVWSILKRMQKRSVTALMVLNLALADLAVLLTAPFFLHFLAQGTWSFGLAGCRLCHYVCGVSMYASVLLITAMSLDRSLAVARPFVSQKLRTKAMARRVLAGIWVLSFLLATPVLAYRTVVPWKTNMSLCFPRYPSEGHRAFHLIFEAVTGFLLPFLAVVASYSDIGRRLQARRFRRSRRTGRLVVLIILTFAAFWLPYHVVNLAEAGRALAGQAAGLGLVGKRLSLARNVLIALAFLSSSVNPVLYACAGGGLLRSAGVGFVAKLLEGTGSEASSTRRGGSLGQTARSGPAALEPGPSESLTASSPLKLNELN
Description: Neutrophils were purified from venous blood of normal human donors using standard techniques of dextran sedimentation, centrifugation on Ficoll-paque® (Pharmacia) or Histopaque® sterile solution (Sigma) and hypotonic lysis of erythrocytes (Boyum, A., Isolation of Leukocytes From Human Blood: Further Observations. Scand. J. Lab. Clin. Invest., 21 (Suppl. 97): 31, 1968). […] The incubation was carried out at 0° C. for 45 minutes and terminated by adding 5 ml of ice-cold HBSS followed by rapid filtration of incubation mixture under vacuum through GF/C glass fiber filters. The filters were further washed with 10 ml HBSS and radioactivity was determined. […] All data refer to specific binding. […] Pat. No. 4,889,871.

[3] = Homo sapiens, Neutrophil, 1.5 h, value in parentheses

Compound | pIC50 (Human neutrophils [1]; [3]) | pIC50 (Human neutrophils [2]; [3]) | Relative Potency, Chemotaxis fMLP (Human neutrophils [1]) | Relative Potency, Chemotaxis LTB4 (Human neutrophils [2]) | Relative Potency, LTB4 Receptor Binding (LTB4 Receptor)
CCCc1c(OCCCOc2ccc(C(C)=O)c(OC)c2CCC)ccc2c1OC(C(=O)O)CC2 (centres unmarked) [Example 1(b), 7-[3-(4-acetyl-3-methoxy-2-propylphenoxy)propoxy]-3,4-dihydro-8-propyl-2H-1-benzopyran-2-carboxylic acid, reference compound] | 5.27 | 5.74 | – | – | –
CCCc1c(OCCCOc2ccc(-c3ccon3)c(OC)c2CCC)ccc2c1OC(C(=O)O)CC2 (centres unmarked) [Example 4, 3,4-Dihydro-7-[3-[4-(3-isoxazolyl)-3-methoxy-2-propylphenoxy]propoxy]-8-propyl-2H-1-benzopyran-2-carboxylic acid] | – | – | 0.37 | 0.25 | 0.70
CCCc1c(OCCCOc2ccc(-c3cc[nH]n3)c(OC)c2CCC)ccc2c1OC(C(=O)O)CC2 (centres unmarked) [Example 6, 3,4-Dihydro-7-[3-[3-methoxy-2-propyl-4-(1H-pyrazol-3-yl)phenoxy]propoxy]-8-propyl-2H-1-benzopyran-2-carboxylic acid] | – | – | 0.35 | 0.66 | 0.88
